Several values for one entry are separate records, joined by “and”; a condition that tells them apart may be missing. Identical values can stand only once.
Experiments:
[1] = test system: MAPK9; parameters: method as in Klaeger et al. (2017); conditions: lysate 4 cell line mix (Colo205, K-562, MV-4-11, and SK-N-BE(2)), Kinobeads y, ref Klaeger et al. (2017); cited from earlier work
[2] = test system: TANK; parameters: method as in Klaeger et al. (2017); conditions: lysate 4 cell line mix (Colo205, K-562, MV-4-11, and SK-N-BE(2)), Kinobeads y, ref Klaeger et al. (2017); cited from earlier work
[3] = test system: RASSF5; parameters: method as in Klaeger et al. (2017); conditions: RASSF5, 4 cell line mix lysate, Kinobeads y, ref Klaeger et al. (2017); cited from earlier work
[4] = test system: p-sites in AsPC-1 cells; assay: Phosphoproteomics 1 µM GEM vs. vehicle (4 h); type: cell-based, human
Method: Cell culture medium was replaced 24 h after seeding. […] For time point 0, AsPC-1 cells were treated with a vehicle and lysed immediately. The final DMSO concentration in all experiments was 0.2%.
Briefly, cells were washed twice with PBS and lysed in SDS lysis buffer (2% SDS in 40 mM Tris-HCl, pH 7.6), followed by sonication for 10 min (30 s on/30 s off) using a Bioruptor (Diagenode). For DNA hydrolysis, samples were boiled at 95 °C for 10 min and incubated with 2% trifluoroacetic acid (TFA) for 1 min, before the reaction was quenched using 4% N-methylmorpholine. Lysate was cleared by centrifugation at 11,000 × g for 5 min and protein concentration was determined using the Pierce BCA Protein Assay Kit (Thermo Scientific).
Using 70% ethanol, samples were then precipitated on beads, followed by washing thrice with 80% ethanol and once with 100% acetonitrile. Subsequently, proteins were reduced and alkylated using 10 mM TCEP, 50 mM chloroacetamide, and 2 mM CaCl2 in 100 mM EPPS/NaOH, pH 8.5 for 1 h at 37 °C, followed by tryptic digestion at 37 °C for 16 h. Peptides were acidified with 1% TFA and desalted on Chromabond HLB plates (30 µm particle size, 10 mg capacity, Machery-Nagel), using 0.1% TFA for equilibration and sample loading, and 0.1% TFA in 70% acetonitrile for peptide elution. Recovered peptides were freeze-dried by vacuum-centrifugation and stored at −20 °C.
Depending on the experiment, samples were either labeled with TMT-11plex (decryptM), TMT-10plex (non-decryptM, quadruplicates), or TMTpro reagent (time-series; all Thermo Scientific). Therefore, dried peptides were reconstituted in 15 µl 100 mM EPPS, pH 8.5 and each treatment condition was labeled with one channel of the respective TMT reagent (5 µl of 25 µg/µl reagent, Appendix Tables S4–S6). The reaction was incubated for 1 h at 23 °C and subsequently quenched with 0.4% hydroxylamine. Then, samples were pooled, acidified with 1% formic acid, and freeze-dried by vacuum-centrifugation. Labeled peptide pools were desalted on C18 Sep-Pak cartridges (37–55 µm particle size, 50 mg capacity, Waters), using 0.1% formic acid as equilibration solvent, and 0.1% formic acid in 60% acetonitrile was used as elution solvent. Eluted peptides were freeze-dried and stored at −20 °C until further use.
Basic reversed-phase (bRP) fractionation of peptides was performed on a Vanquish HPLC (Thermo Scientific). In short, dried peptides were reconstituted in 200 µl 25 mM ammonium bicarbonate, pH 8.0 and directly injected onto a Waters BEH130 XBridge C18 column (3.5 µm, 4.6 × 250 mm). […] Using an automated fraction collector, 96 fractions were collected between min 7 and 55 after injection. Fractions were acidified with 1% formic acid and pooled to 48 fractions, before they were freeze-dried and stored at −20 °C.
Immobilized metal ion affinity chromatography (IMAC) enrichment of phosphorylated peptides was performed on the Bravo automated liquid handling platform using AssayMAP Fe(III)-NTA cartridges (Agilent). In brief, the 48 dried peptide fractions were reconstituted in 0.1% TFA in 80% acetonitrile and further pooled to 12 fractions (200 µl final volume per well). The phosphopeptide enrichment protocol embedded in the Agilent AssayMAP Bravo Protein Sample Prep Workbench v2.0 software was run. Thereby, the cartridges were first primed with 150 μl 0.1% TFA in acetonitrile at 300 μl/min, and equilibrated with 150 μl 0.1% TFA in 80% acetonitrile at 10 μl/min. Then, pooled fractions were loaded at 5 µl/min and further washed three times with 150 μl 0.1% TFA in 80% acetonitrile at 50 μl/min. Enriched peptides were eluted with 60 μl 1% ammonium hydroxide at 5 μl/min.

[5] = target: BCR; conditions: 5 cell line mix lysate, Kinobeads ε, ref Reinecke et al. (2023), cited from earlier work
[6] = target: PDGFRB; parameters: method as in Reinecke et al. (2023); conditions: 5 cell line mix lysate, Kinobeads ε, ref Reinecke et al. (2023), cited from earlier work
[7] = test system: PRKD1; parameters: method as in Reinecke et al. (2023); conditions: PRKD1, 5 cell line mix lysate, Kinobeads ε, ref Reinecke et al. (2023), cited from earlier work
[8] = test system: TBK1; conditions: TBK1, 5 cell line mix lysate, Kinobeads ε, ref Reinecke et al. (2023), cited from earlier work

## C[C@]12O[C@H](C[C@]1(O)CO)n1c3ccccc3c3c4c(c5c6ccccc6n2c5c31)CNC4=O [Lestaurtinib]
[1]
  EC50: 2470 nM
[2]
  EC50: 1340 nM
[3]
  EC50: 73 nM

## Nc1ccn([C@@H]2O[C@H](CO)[C@@H](O)C2(F)F)c(=O)n1 [GEM, Gemcitabine]
[4]; 1 µM GEM vs. vehicle
  increase of CHEK1-pS468 phosphorylation upon GEM: > 18 fold and 18 fold
  increase of LRRC42-pS385 upon GEM: 4.8 fold and ~ 5 fold
  increase of NSUN5-pS432 upon GEM: 7 fold
  increase of PNISR-pS706 upon GEM: 4.6 fold
  induction of HMGA1 pS9 by GEM: > 4 fold
  induction of HMGA1 pS44 by GEM: > 4 fold
  induction of PPM1G pS201 by GEM: > 4 fold
  induction of TSEN34 pS136 by GEM: > 4 fold
[4]; 1,000 nM GEM vs. vehicle, n=4
  GEM Regulation, PPM1G S201: up
  GEM Regulation, RALY S176: up
  GEM_log2FC, PPM1G S201: 2.66 log2
  GEM_log2FC, RALY S176: 3.08 log2

## COc1cc(N2CCC(N3CCN(C)CC3)CC2)ccc1Nc1ncc(Cl)c(Nc2ccccc2P(C)(C)=O)n1 [Brigatinib]
[5]; read-out: KDapp
  Kd: 504 nM
[5]
  EC50: 1050 nM
  pKDapp: 6.30
[6]; read-out: KDapp
  Kd: 737 nM
[6]
  EC50: 843 nM
  pKDapp: 6.13
[7]
  EC50: 45.9 nM
  pKDapp: 7.50
[7]; read-out: KDapp
  Kd: 31.4 nM
[8]
  EC50: 1020 nM
  pKDapp: 6.18
[8]; read-out: KDapp
  Kd: 655 nM
